From US20230172867A1, “A METHOD FOR TREATING CANCER WITH AN ORAL DOSAGE FORM OF AN FGFR4 INHIBITOR” (Eisai R&D Management Co., Ltd., priority 2020, published 2023)
“Also recorded” adds a separate entry of the source. Like-named read-outs stand apart in the source and are kept apart here.

Experiment: Pharmacokinetic measurements of H3B-6527 capsules in patients (trial NCT02834780), plasma LC-MS/MS
Type: in vivo, human
Conditions: for Cmax / half-life / Tmax / AUC: human, plasma, oral; for Cmax: read-out: Cmax, geometric mean (CV%); for half-life: read-out: Half-life, geometric mean (CV%) (converted); for Tmax: read-out: Tmax, median (min-max); for AUC: read-out: AUC, geometric mean (CV%)
Source text: A description of the first in human clinical trial for H3B-6527 can be found at the ClinicalTrials.gov by searching for trial identifier NCT02834780. In summary, the trial included a study population having the following characteristics: Adult patients ≥18 years old with advanced HCC or ICC; Progression after at least one prior therapy; ECOG score of 0 or 1; Well compensated liver function; FGF19-positive (dose expansion phase only); Excluded if patients have significant active infections [except hepatitis B virus (HBV) and hepatitis C virus (HCV)], gastric or esophageal varices, or previous FGF19-FGFR4 targeted therapy.
Blood samples are collected at the planned time points from each patient and centrifuged. The plasma portion of each sample is then transferred to a K2EDTA tube, which is then shipped to a bioanalytical lab for concentration measurement using LC-MS/MS. The concentration data are then analyzed using Phoenix® WinNonlin software to obtain PK parameters. The obtained PK parameters are further summarized using analytical software.
Drug Administration and Dosage for Dose Escalation: H3B-6527 was administered orally QD or BID on a 21-day cycle. […] Patients in dose escalation phase were treated regardless of FGF19 status. Response determined by RECIST 1.1/modified RECIST every 6 weeks
Further collection and collation of the PK results of the trial of Example 2 at a later point in time are reflected in the following Table 5:
The results of further analysis of the PK data of the trial of Example 2 with the actual date and time of the dose administration and PK sampling after QC, an update from the results of a preliminary analysis with the nominal (i.e. planned) dosing/PK sampling date/time presented in Example 3, are reflected in the following Table 6. In this example the number of patients from which each PK parameter was calculated is shown, rather than the total number of patients receiving a particular dose and regimen as in Table 5.

[1] = 300 mg, 300 mg QD, fasted, Day 1, Table 5, nominal times
[2] = 300 mg, 300 mg QD, fasted, Day 1, Table 6, actual times after QC
[3] = 300 mg, 300 mg QD, fasted, Day 8, Table 5, nominal times
[4] = 300 mg, 300 mg QD, fasted, Day 8, Table 6, actual times after QC
[5] = 500 mg, 500 mg BID, fasted, Day 1, Table 5, nominal times
[6] = 500 mg, 500 mg BID, fasted, Day 1, Table 6, actual times after QC
[7] = 500 mg, 500 mg BID, fasted, Day 8, Table 5, nominal times
[8] = 500 mg, 500 mg BID, fasted, Day 8, Table 6, actual times after QC
[9] = 500 mg, 500 mg BID, fed, Day 1, Table 5, nominal times
[10] = 500 mg, 500 mg BID, fed, Day 1, Table 6, actual times after QC
[11] = 500 mg, 500 mg BID, fed, Day 8, Table 5, nominal times
[12] = 500 mg, 500 mg BID, fed, Day 8, Table 6, actual times after QC
[13] = 600 mg, 600 mg QD, fasted, Day 1, Table 5, nominal times
[14] = 600 mg, 600 mg QD, fasted, Day 1, Table 6, actual times after QC
[15] = 600 mg, 600 mg QD, fasted, Day 8, Table 5, nominal times
[16] = 600 mg, 600 mg QD, fasted, Day 8, Table 6, actual times after QC
[17] = 600 mg, 600 mg QD, fed, Day 1, Table 5, nominal times
[18] = 600 mg, 600 mg QD, fed, Day 1, Table 6, actual times after QC
[19] = 600 mg, 600 mg QD, fed, Day 8, Table 5, nominal times

With `C=CC(=O)Nc1cc(N2CCN(CC)CC2)ccc1Nc1cc(N(C)C(=O)Nc2c(Cl)c(OC)cc(OC)c2Cl)ncn1` [H3B-6527, N-(2-((6-(3-(2,6-dichloro-3,5-dimethoxyphenyl)-1-methylureido)pyrimidin-4-yl)amino)-5-(4-ethylpiperazin-1-yl)phenyl)acrylamide] the AUC, geometric mean (CV%) (300 mg QD, fasted, Day 1, Table 5, nominal times) was 73 ng·h/mL, the AUC, geometric mean (CV%) (300 mg QD, fasted, Day 8, Table 5, nominal times) was 53 ng·h/mL and the AUC, geometric mean (CV%) (500 mg BID, fasted, Day 1, Table 5, nominal times) was 470 ng·h/mL. It also gave an AUC, geometric mean (CV%) (500 mg BID, fasted, Day 8, Table 5, nominal times) of 1200 ng·h/mL, an AUC, geometric mean (CV%) (500 mg BID, fed, Day 1, Table 5, nominal times) of 769 ng·h/mL and an AUC, geometric mean (CV%) (500 mg BID, fed, Day 8, Table 5, nominal times) of 1080 ng·h/mL. For the same compound, the “exposure in plasma across doses” value (500 mg to 2000 mg administered with food (FIG. 4)) was “appeared to be similar across the doses from 500 mg to 2000 mg”, the AUC, geometric mean (CV%) (600 mg QD, fasted, Day 1, Table 5, nominal times) was 175 ng·h/mL and the AUC, geometric mean (CV%) (600 mg QD, fasted, Day 8, Table 5, nominal times) was 636 ng·h/mL. It also gave an AUC, geometric mean (CV%) (600 mg QD, fed, Day 1, Table 5, nominal times) of 1280 ng·h/mL, an AUC, geometric mean (CV%) (600 mg QD, fed, Day 8, Table 5, nominal times) of 502 ng·h/mL and an AUC, geometric mean (CV%) (700 mg BID, fed, Day 1, Table 5, nominal times) of 590 ng·h/mL. It also gave an AUC, geometric mean (CV%) (700 mg BID, fed, Day 8, Table 5, nominal times) of 640 ng·h/mL, an AUC, geometric mean (CV%) (1000 mg QD, fasted, Day 1, Table 5, nominal times) of 602 ng·h/mL and an AUC, geometric mean (CV%) (1000 mg QD, fasted, Day 8, Table 5, nominal times) of 912 ng·h/mL. For the same compound, the AUC, geometric mean (CV%) (1000 mg QD, fed, Day 1, Table 5, nominal times) was 1100 ng·h/mL, the AUC, geometric mean (CV%) (1000 mg QD, fed, Day 8, Table 5, nominal times) was 865 ng·h/mL and the AUC, geometric mean (CV%) (1400 mg QD, fasted, Day 1, Table 5, nominal times) was 400 ng·h/mL. For the same compound, the AUC, geometric mean (CV%) (1400 mg QD, fasted, Day 8, Table 5, nominal times) was 1450 ng·h/mL, the AUC, geometric mean (CV%) (1400 mg QD, fed, Day 1, Table 5, nominal times) was 5670 ng·h/mL and the AUC, geometric mean (CV%) (1400 mg QD, fed, Day 8, Table 5, nominal times) was 5450 ng·h/mL. The AUC, geometric mean (CV%) (2000 mg QD, fed, Day 1, Table 5, nominal times) was 3030 ng·h/mL, the AUC, geometric mean (CV%) (2000 mg QD, fed, Day 8, Table 5, nominal times) was 1920 ng·h/mL and the “minimal plasma concentration, BID versus QD schedule” value (Cycle 1, Day 8 (FIG. 1)) was “A higher minimal plasma concentration was maintained on the BID schedule”. The “plasma levels / exposure versus dose” value (QD, fasted, Cycle 1, Day 8 (FIG. 1), preliminary PK analysis) was “increased with dose from 300 to 1000 mg QD and plateaued; also recorded: increased with dose up to 1000 mg QD”, the Cmax [1] was 20 ng/mL and the half-life [1] was 84 min. The Tmax [1] was 2 h, the AUC [2] was 72.7 ng·h/mL and the Cmax [2] was 20.3 ng/mL. The half-life [2] was 151 min, the Tmax [2] was 2 h and the Cmax [3] was 11 ng/mL. For the same compound, the half-life [3] was 72 min, the Tmax [3] was 4 h and the AUC [4] was 53 ng·h/mL. For the same compound, the Cmax [4] was 10.8 ng/mL, the half-life [4] was 213 min and the Tmax [4] was 4 h. For the same compound, the Cmax [5] was 124 ng/mL, the half-life [5] was 114 min and the Tmax [5] was 2.75 h. The AUC [6] was 292 ng·h/mL, the Cmax [6] was 124 ng/mL and the half-life [6] was 145 min. For the same compound, the Tmax [6] was 2.12 h, the Cmax [7] was 253 ng/mL and the half-life [7] was 108 min. The Tmax [7] was 3.05 h, the AUC [8] was 1110 ng·h/mL and the Cmax [8] was 251 ng/mL. It also gave a half-life [8] of 178 min, a Tmax [8] of 4 h and a Cmax [9] of 255 ng/mL. It also gave a half-life [9] of 126 min, a Tmax [9] of 4.02 h and an AUC [10] of 768 ng·h/mL. The Cmax [10] was 255 ng/mL, the half-life [10] was 140 min and the Tmax [10] was 4.02 h. For the same compound, the Cmax [11] was 262 ng/mL, the half-life [11] was 138 min and the Tmax [11] was 4 h. It also gave an AUC [12] of 814 ng·h/mL, a Cmax [12] of 211 ng/mL and a half-life [12] of 179 min. For the same compound, the Tmax [12] was 4 h, the Cmax [13] was 74 ng/mL and the half-life [13] was 144 min. The Tmax [13] was 1 h, the AUC [14] was 175 ng·h/mL and the Cmax [14] was 74.5 ng/mL. For the same compound, the half-life [14] was 431 min, the Tmax [14] was 1 h and the Cmax [15] was 194 ng/mL. The half-life [15] was 288 min, the Tmax [15] was 0.52 h and the AUC [16] was 636 ng·h/mL. It also gave a Cmax [16] of 194 ng/mL, a half-life [16] of 439 min and a Tmax [16] of 0.52 h. The Cmax [17] was 241 ng/mL, the half-life [17] was 222 min and the Tmax [17] was 4 h. It also gave an AUC [18] of 1630 ng·h/mL, a Cmax [18] of 395 ng/mL and a half-life [18] of 223 min. The Tmax [18] was 4 h, the Cmax [19] was 100 ng/mL and the half-life [19] was 192 min.
